Here are results for 4 compounds from patent US20090048461A1, “Regulators of Bacterial Signalling Pathways” (Biosignal Limited, priority 2004, published 2009).

For test [1], the system named is two-component signal transduction systems (Taz system). Description: Taz-1 assay (two-component signal transduction, beta-galactosidase activity). The format is cell-based, E. coli RU1012 (pYT0301). Particulars: for reduction of beta-galactosidase activity: 3 mM aspartate, 4 hours; for inhibition of two-component signal transduction systems: no concentration stated. As to the method: The Taz-assay carried out according to the method of Jin and Inouyc (1993) with the following alterations. E. coli RU1012 (pYT0301) were grown overnight in M9 medium at 37° C. supplemented with 100 ug/ml ampicillin and 50 ug/ml kanamycin. This overnight culture was then used to inoculate 50 ml M9 medium in side-arm flasks which were then incubated at 37° C. and shaken at 180 rpm. The OD610 of the growing cultures was monitored regularly and when the OD610=0.2 the cultures were placed on ice […] to give a final concentration of 3 mM (aspartate stock solution made up in M9 salts).
The test compound or mixtures of compounds were dissolved in ethanol and added to cultures to give the required final concentrations. Negative controls were prepared with equal volumes of ethanol. Cultures were then placed in a 37° C. incubator and shaken for 4 hours (OD610 approximately 0.7) before being removed and put on ice. Samples were then removed for beta-galactosidase assays carried out according to the method of Miller (1972). Aspartate (the natural inducer of the Taz system) was used as a positive control at a concentration of 3 mmolar.

Test [2] deals with V. harveyi reporter strain BB170 Al-2 bioluminescence. As to the kind of experiment: V. harveyi bioassay for the detection of Al-2 activity (bioluminescence). Type of test: cell-based, Vibrio harveyi. Particulars: concentration of 50 ug/ml. How it is done: The V. harveyi bioassay was performed as described previously (Surette and Bassler, 1998). The V. harveyi reporter strain BB170 was grown for 16 hours at 30° C. with shaking in AB medium. Cells were diluted 1:5,000 into 30° C. prewarmed AB medium and 90 ul of the diluted suspension was added to wells containing supernatant. Compounds to be tested were added to the wells to achieve the desired final concentrations and the final volume in each well was adjusted with sterile medium to 100 ul. Ten ul of V. harveyi BB152 (Al-1−, Al-2+) supernatant was used as a positive control and 10 ul of E. coli DH5α supernatant or sterile media was used as a negative control. […] The microtiter plates were incubated at 30° C. with shaking at 175 rpm. Hourly determinations of the total luminescence were quantified using the chemiluminescent setting on a Wallac (Gaithersburg, Md.) model 1450 Microbeta Plus liquid scintillation counter. The V. harveyi cell density was monitored by the use of a microplate reader (Bio-Rad, Hercules, Calif.). Activity is reported as the percentage of activity obtained from V. harveyi BB152 cell-free supernatant. While the absolute values of luminescence varied considerably between experiments, the pattern of results obtained was reproducible.

The next test concerns Staphylococcus aureus. Description: Growth of Staphylococcus aureus in sidearm flasks (absorbance 610 nm). The format is cell-based. How it is done:
Compounds 122 and 123 were tested against growth of Staphylococcus aureus. The experiments were performed in sidearm flasks and the growth was measured at 610 nm for 12 hours. Hundred μl of an overnight culture was added to 10 ml of growth medium. Nutrient Broth, containing furanones at concentrations 10 and 25 μg/ml. The bacteria were incubated at 37° C.

Test [3] concerns Pseudomonas aeruginosa (PA01 DO). Description: Attachment of Pseudomonas aeruginosa (PA01 DO), crystal violet, microtiter plate. Type of test: cell-based. The conditions noted are these: no concentration stated. As to the method:
The experiments were performed in 96 wells microtiter plates using a volume of 200 μl. The growth medium was M9 and the plates were incubated at 37° C. One % of overnight inoculum was used and the concentrations of the compounds to be tested were 25 and 50 μg/ml. The attachment of the cells were monitored at the endpoint of the experiment which was after 24 hrs. The cells were stained with crystal violet and the absorbance was measured at 595 nm. Reduction in attachment was measured against the control (PAO1 Do ETO ) set at 100%.

In test [4] the test system is Pseudomonas aeruginosa. Description: Attachment of Pseudomonas aeruginosa (Example 10). The conditions noted are these: 50 μg/ml; 1:9 dilution of TBY medium, 6 hrs. Type of test: cell-based. How it is done:
(§1) The experiments were performed in 96 well microtiter plates using a volume of 100 μl. The growth medium was BHI and the plates were incubated at 37° C. One % of overnight inoculum was used and the concentration of the compound to be tested was 50 μg/ml. Both growth and attachment of the cells were monitored at the end point of the experiments which was and after 24 hrs with P. canoris. The cells were stained with crystal violet and the absorbance was measured at 595 nm.
(§2) As Example 9, but the used medium was a 1:9 dilution of TBY medium and the incubation time was 6 hrs.

For test [5], the system named is Pseudomonas aeruginosa. Description: Growth of Pseudomonas aeruginosa (Example 10). Type of test: cell-based. Particulars: 50 μg/ml; 1:9 dilution of TBY medium, 6 hrs. As to the method: as §1, §2
In test [6] the test system is Porphyromonas canoris. As to the kind of experiment: Attachment of Porphyromonas canoris (Example 9). Type of test: cell-based. Particulars: 50 μg/ml; BHI, 24 hrs. How it is done:
as §1

In test [7] the test system is Porphyromonas canoris. Description: Growth of Porphyromonas canoris (Example 9). The format is cell-based. Particulars: 50 μg/ml; BHI, 24 hrs. How it is done:
as §1

[8] abbreviates: 25 μg/ml, Nutrient Broth, 37° C., 12 hours.

Structures are written as SMILES.

On to `CC(=O)/C(C)=C/Br` [Compound 80, 3-(Bromomethylene)-2-Butanone], for which, in test [1] (concentration of 50 ug/ml), the “reduction of beta-galactosidase activity” value is listed as 75%. In addition, the “inhibition of two-component signal transduction systems” value in test [1] is reported as “act as inhibitors”.

Consider `CCCCC(=CBr)C(C)=O` [Compound 101, 3-(Bromomethylene)-2-Heptanone], for which the “effect on bioluminescence activity” value in test [2] is on record as “significant increase”.

Regarding `CCC/C(=C\Br)C(C)=O` [Compound 122, 3-(Bromomethylene)-2-Hexanone], in the test with Staphylococcus aureus (setting [8]), the “growth inhibition” value was “slight growth inhibition”. For the same compound, the “effect on bioluminescence activity” value in test [2] is given as “significant increase”. Further, the “effect on attachment” value in test [3] is given as “reduce the attachment”.

In the case of `CCC(=O)/C(C)=C/Br` [Compound 123, 2-(Bromomethylene)-3-Pentanone], the “reduction of beta-galactosidase activity” value in test [1] (concentration of 25ug/ml) turned out to be 40%. In addition, the “inhibition of two-component signal transduction systems” value in test [1] is “act as inhibitors”. The “effect on attachment to a surface” value in the test with Pseudomonas aeruginosa [4] and in the test with Porphyromonas canoris [6] was “significantly limits” throughout. In addition, the “growth inhibition” value in the test with Staphylococcus aureus (10 μg/ml, Nutrient Broth, 37° C., 12 hours) is on record as “slight growth inhibition”. In the test with Staphylococcus aureus (setting [8]), the “prolonged lagphase of growth” value is 4 h. Further, the “growth inhibition compared to 122” value in the test on Staphylococcus aureus (concentrations 10 and 25 μg/ml) was “more growth inhibitory”. Also, the “effect on growth” value in the test with Pseudomonas aeruginosa [5] and in the test on Porphyromonas canoris [7] was “relatively insignificant effect” throughout. In addition, the “effect on bioluminescence activity” value in test [2] is given as “significant increase”. Further, the “effect on attachment” value in test [3] is given as “reduce the attachment”.
